According to patent US20240166663A1, “NOVEL PYRIMIDINE DERIVATIVE SHOWING INHIBITION EFFECT ON GROWTH OF CANCER CELLS” (ONCOBIX CO., LTD., priority 2021, published 2024):

Target: EXON 20 Insertion(NPG) Ba/F3 Cell (Homo sapiens, UniProt P00533, INS772GNP, cells depend on it)
Assay: Measurement of cancer cell growth inhibitory effect (MTT assay)
Assay type: cell-based, Murine
Settings: Ba/F3 cells expressing EGFR with NPG added at D770_N771, 72 hours treatment, read at 595 nm, read-out: EXON 20 Insertion(NPG) Ba/F3 Cell(IC50)
Description: Since there is no commercially available lung cancer cell line with EGFR insertion mutation, a method of inserting 3 to 4 amino acids at each site using site direct mutagenesis in a wild type EGFR expression vector was attempted. In the present invention, first, a vector with three amino acids of NPG added to the D770_N771 site with the highest frequency was used, and Ba/F3 cell line was used for expression of these genes.
When the oncogenic mutant EGFR is expressed, dependence on the mutant EGFR for cell growth and apoptosis occurs without IL-3. Therefore, substances that show effective inhibition of mutant EGFR suppress cell growth and induce apoptosis, so the anticancer effect of cells was analyzed through MTT assay.
1×10^4 cells of the previously constructed stable cells were put into a 96 well plate and incubated overnight, and then the compound of Example was dose dependently treated. After 72 hours, MTT reagent was added, and after 3 hours stop buffer (10% SDS) was added. After 24 hours of incubation, the results were analyzed by reading at 595 nm. […] As a control drug, Mobocertinib was used.

EXON 20 Insertion(NPG) Ba/F3 Cell, sequence (P00533 with tags, fused parts or gaps INS772GNP): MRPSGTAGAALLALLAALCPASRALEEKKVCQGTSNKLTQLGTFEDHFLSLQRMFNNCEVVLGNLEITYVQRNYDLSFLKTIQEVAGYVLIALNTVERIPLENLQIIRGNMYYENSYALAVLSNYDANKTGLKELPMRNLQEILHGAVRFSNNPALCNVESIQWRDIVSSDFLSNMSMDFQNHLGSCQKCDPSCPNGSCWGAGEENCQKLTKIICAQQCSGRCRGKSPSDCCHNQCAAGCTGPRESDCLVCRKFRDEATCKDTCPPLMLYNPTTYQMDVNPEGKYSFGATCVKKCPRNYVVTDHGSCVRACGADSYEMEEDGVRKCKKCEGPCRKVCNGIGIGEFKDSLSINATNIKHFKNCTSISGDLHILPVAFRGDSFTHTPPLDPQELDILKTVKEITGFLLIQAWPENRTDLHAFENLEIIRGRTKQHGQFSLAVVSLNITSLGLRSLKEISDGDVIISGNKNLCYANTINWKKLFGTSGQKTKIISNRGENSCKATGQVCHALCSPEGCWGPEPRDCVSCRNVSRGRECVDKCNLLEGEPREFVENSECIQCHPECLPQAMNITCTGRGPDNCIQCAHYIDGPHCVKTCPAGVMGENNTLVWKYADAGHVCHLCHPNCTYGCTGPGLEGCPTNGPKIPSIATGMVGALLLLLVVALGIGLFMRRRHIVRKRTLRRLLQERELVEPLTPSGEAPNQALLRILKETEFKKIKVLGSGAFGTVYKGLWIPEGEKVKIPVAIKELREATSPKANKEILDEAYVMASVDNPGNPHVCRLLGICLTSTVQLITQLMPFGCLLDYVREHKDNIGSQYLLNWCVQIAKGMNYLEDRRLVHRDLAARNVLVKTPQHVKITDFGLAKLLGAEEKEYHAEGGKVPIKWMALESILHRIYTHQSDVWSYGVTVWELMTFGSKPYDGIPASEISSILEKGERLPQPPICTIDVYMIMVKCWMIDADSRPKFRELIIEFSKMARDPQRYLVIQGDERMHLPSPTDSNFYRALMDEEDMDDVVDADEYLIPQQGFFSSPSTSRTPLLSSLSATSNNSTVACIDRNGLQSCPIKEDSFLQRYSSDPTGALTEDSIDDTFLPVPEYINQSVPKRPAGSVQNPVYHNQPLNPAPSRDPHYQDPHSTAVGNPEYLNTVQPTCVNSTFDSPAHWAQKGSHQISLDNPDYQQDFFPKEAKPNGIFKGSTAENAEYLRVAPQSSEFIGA

Question: For `C=CC(=O)Nc1cc(Nc2ncc(C(=O)OC(C)C)c(-c3cn(C)c4ccccc34)n2)c(OC)cc1N(C)CCN(C)C` [Mobocertinib, reference compound], which GI50 is on record?
Answer: 50 to 500 nM

Question: Which GI50 does the source give for `C=CC(=O)Nc1cc(Nc2ncc(C)c(Nc3ccccc3-n3cccn3)n2)c(OC)cc1N(C)CCN(C)C` [Example 14, N-(5-((4-((2-(1H-pyrazol-1-yl)phenyl)amino)-5-methylpyrimidin-2-yl)amino)-2-((2-(dimethylamino)ethyl)(methyl)amino)-4-methoxyphenyl)acrylamide] here?
Answer: 25 to 50 nM

Question: For `C=CC(=O)Nc1cc(Nc2cc(Nc3ccccc3-c3ccn(C)n3)ncn2)c(OC)cc1N1CC[C@@H](N(C)C)C1` [Example 7, (R)-N-(2-(3-(dimethylamino)pyrrolidin-1-yl)-4-methoxy-5-((6-((2-(1-methyl-1H-pyrazol-3-yl)phenyl)amino)pyrimidin-4-yl)amino)phenyl)acrylamide], which GI50 is on record?
Answer: 25 to 50 nM

Question: Which GI50 does the source give for `C=CC(=O)Nc1cc(Nc2ncc(Cl)c(Nc3ccccc3-n3cccn3)n2)c(OC)cc1N(C)CCN(C)C` [Example 30, N-(5-((4-((2-(1H-pyrazol-1-yl)phenyl)amino)-5-chloropyrimidin-2-yl)amino)-2-((2-(dimethylamino)ethyl)(methyl)amino)-4-methoxyphenyl)acrylamide] here?
Answer: < 25 nM

Question: `C=CC(=O)Nc1cc(Nc2cc(Nc3ccccc3-c3ccn(C)n3)ncn2)c(OCC(F)(F)F)cc1N(C)CCN(C)C` [Example 10, N-(2-((2-(diamethylamino)ethyl)(methyl)amino)-5-((6-((2-(1-methyl-1H-pyrazol-3-yl)phenyl)amino)pyrimidin-4-yl)amino)-4-(2,2,2-trifluoroethoxy)phenyl)acrylamide] was tested. Which GI50 did it give?
Answer: < 25 nM

Question: With `C=CC(=O)Nc1cc(Nc2ncc(C(=O)OC(C)C)c(Nc3ccccc3-c3ccn(C)n3)n2)c(OC)cc1N1CC[C@@H](N(C)C)C1` [Example 26, Isopropyl(R)-2-((5-acrylamido-4-(3-(dimethylamino)pyrrolidin-1-yl)-2-methoxyphenyl)amino)-4-((2-(1-methyl-1H-pyrazol-3-yl)phenyl)amino)pyrimidin-5-carboxylate] as the compound, how does the GI50 read?
Answer: 25 to 50 nM

Question: Which GI50 does the source give for `C=CC(=O)Nc1cc(Nc2cc(Nc3ccccc3-c3ccn(C)n3)ncn2)c(OC(C)C)cc1N(C)CCN(C)C` [Example 3, N-(2-((2-(dimethylamino)ethyl)(methyl)amino)-4-isopropoxy-5-((6-((2-(1-methyl-1H-pyrazol-3-yl)phenyl)amino)pyrimidin-4-yl)amino)phenyl)acrylamide] here?
Answer: 25 to 50 nM

Question: For `C=CC(=O)Nc1cc(Nc2cc(Nc3ccccc3-c3ccn(C)n3)ncn2)c(OCC)cc1N(C)CCN(C)C` [Example 11], which GI50 is on record?
Answer: 25 to 50 nM

Question: Which GI50 does the source give for `C=CC(=O)Nc1cc(Nc2ncc(Cl)c(Nc3ccccc3-c3ccn(C)n3)n2)c(OC)cc1N(C)[C@@H]1CCN(C)C1` [Example 35, (R)-N-(5-((5-chloro-4-((2-(1-methyl-1H-pyrazol-3-yl)phenyl)amino)pyrimidin-2-yl)amino)-4-methoxy-2-(methyl(1-methylpyrrolidin-3-yl)amino)phenyl)acrylamide] here?
Answer: 25 to 50 nM

Question: With `C=CC(=O)Nc1cc(Nc2cc(Nc3ccccc3-c3ccn(C)n3)ncn2)c(OC)cc1N1CCN(C)CC1` [Example 4, N-(4-methoxy-5-((6-((2-(1-methyl-1H-pyrazol-3-yl)phenyl)amino)pyrimidin-4-yl)amino)-2-(4-methylpiperizin-1-yl)phenyl)acrylamide] as the compound, how does the GI50 read?
Answer: 25 to 50 nM

Question: Which GI50 does the source give for `C=CC(=O)Nc1cc(Nc2ncc(C#N)c(Nc3ccccc3-c3ccn(C)n3)n2)c(OC)cc1N(C)CCN(C)C` [Example 13, N-(5-((5-cyano-4-((2-(1-methyl-1H-pyrazol-3-yl)phenyl)amino)pyrimidin-2-yl)amino)-2-((2-(dimethylamino)ethyl)(methyl)amino)-4-methoxyphenyl)acrylamide] here?
Answer: 25 to 50 nM

Question: `C=CC(=O)Nc1cc(Nc2ncc(C(=O)OC3CC3)c(Nc3ccccc3-c3ccn(C)n3)n2)c(OC)cc1N(C)CCN(C)C` [Example 22, cyclopropyl 2-((5-acrylamido-4-((2-(dimethylamino)ethyl)(methyl)amino)-2-methoxyphenyl)amino)-4-((2-(1-methyl-1H-pyrazol-3-yl)phenyl)amino)pyrimidin-5-carboxylate] was tested. Which GI50 did it give?
Answer: 25 to 50 nM

Question: Which GI50 does the source give for `C=CC(=O)Nc1cc(Nc2cc(Nc3ccccc3-n3cccn3)ncn2)c(OC)cc1N(C)CCN(CC)CC` [Example 37, N-(5-((6-((2-(1H-pyrazol-1-yl)phenyl)amino)pyrimidin-4-yl)amino)-2-((2-(diethylamino)ethyl)(methyl)amino)-4-methoxyphenyl)acrylamide] here?
Answer: 25 to 50 nM

Question: With `C=CC(=O)Nc1cc(Nc2cc(Nc3ccccc3-n3cccn3)ncn2)c(OC)cc1N(C)CCN(C)C` [Example 2, N-(5-((6-((2-(1H-pyrazol-1-yl)phenyl)amino)pyrimidin-4-yl)amino)-2-((2-(dimethylamino)ethyl)(methyl)amino)-4-methoxyphenyl)acrylamide] as the compound, how does the GI50 read?
Answer: < 25 nM

Question: Which GI50 does the source give for `C=CC(=O)Nc1cc(Nc2ncc(Cl)c(Nc3ccccc3-c3ccn(C)n3)n2)c(OC)cc1N1CCOCC1` [Example 32, N-(5-((5-chloro-4-((2-(1-methyl-1H-pyrazol-3-yl)phenyl)amino)pyrimidin-2-yl)amino)-4-methoxy-2-morpholinophenyl)acrylamide] here?
Answer: 25 to 50 nM
